Test results as given in paper PMC4336331, “Novel Receptor-Derived Cyclopeptides to Treat Heart Failure Caused by Anti-β1-Adrenoceptor Antibodies in a Human-Analogous Rat Model” (PLoS ONE, 2015).
Peptide text beside a SMILES is read from it.

How the values were obtained:
cardiac β1-ARs = test: Radioligand binding of cardiac membranes (125I-CYP); type: in vivo, Lewis/CrlBR rats; settings: 125I-cyanopindolol binding to cardiac membranes, CGP20712A competition (Fig. 4A and B)
Method: Membranes from apical cardiac tissues from rats of each study-group were prepared as previously described. To determine total β-AR density (Bmax), 35μg membrane protein were incubated (1.5 h, 25°C) in binding buffer with 200pM of the non-selective β-AR antagonist ^125I-cyanopindolol (^125I-CYP; Perkin Elmer Life and Analytical Sciences, Billerica, MA). Non-specific binding was determined with 5μM unlabeled L-propranolol. The proportion of β1- and β2-AR subtypes was estimated from biphasic competition-curves with 10^-10 to 10^-2 M of the unlabeled β1-selective antagonist CGP20712A (Sigma). The reaction was stopped by rapid filtration (Whatman GF/C filters) and washing with ice-cold buffer. Filter-bound radioactivity was measured by γ-counting. Estimates of maximal binding (Bmax) and the proportion of β1- and β2-AR-subtypes were calculated with GraphPad Prism 5.00 (San Diego, CA).
Fig 4 Cardiac adrenergic system and molecular markers. […] Columns ± error bars represent the level of expression of the indicated markers ±SEM in cardiac tissues from the indicated treatment-groups compared to values from 0.9% NaCl-injected rats (controls, set at 100%), as determined by qRT-PCR normalised to GAPDH (one way ANOVA and Dunnett`s post-hoc test; *p<0.05; **p<0.001).

[1] = test system: anti-β1EC2-induced heart failure (β1EC2/GST-FP-immunised rats); test: Relative organ wet weights and body weight, prevention-study; settings: month 16, mean ±SEM
Method: In brief, n = 76 two months old Lewis/CrlBR rats were either s.c. immunised with 50 μg β1EC2/GST-FP, or n = 38 rats were control-injected with 0.9% NaCl (t = 0). To maintain high anti-β1EC2-titers, all immunised rats were boosted with β1EC2/GST-FP (or 0.9% NaCl) every month over 20 months as previously described. Application of the different linear or cyclic β1-AR peptides (corresponding to the primary AA-sequence of either the first (β1EC1) or the 2nd extra-cellular β1-AR loop (β1EC2)) or the β1-receptor blocker bisoprolol was initiated either 6 weeks after the 1st immunisation (i.e. 15 days after the 1st boost, prevention-study), or 8.5 months after the 1st immunisation (therapy-study).
After the hearts all other relevant inner organs (e.g., lung, liver, spleen, kidneys, brain, and eyes) were removed, rinsed with ice-cold PBS, weighed, sectioned, and fixed for further histologic analysis.

[2] = test system: anti-β1EC2-induced heart failure (β1EC2/GST-FP-immunised rats); test: Heart histology (fibrotic scars, TUNEL, mast cells), therapy-study; type: in vivo, Lewis/CrlBR rats; settings: for number of myocardial fibrotic scars, in words: midventricular 2μm-sections (Fig. 3A and B); for TUNEL-positive apopotic cells, in words: midventricular 2μm-sections (Fig. 3C); for increase in cardiac mast cells, in words: toluidine blue, mono- or co-treatment (Fig. 3E)
Text: Fig 3 Histology of rat hearts (therapy-study). (A) Representative H&E-stained 2μm cross-sections of hearts (from the left to the right) from a control rat, an immunised untreated rat, a bisoprolol- and a β1EC2-CP mono-treated rat, and a β1EC2-CP/bisoprolol co-treated rat. (B) Quantification of fibrotic scars in midventricular 2μm-sections (mvhs, mid-ventricular heart-section). Columns ± error bars represent the mean number of fibrotic scars ±SEM per 3 heart sections in the indicated groups. (C) TUNEL-assay with 2μm-mvhs. Columns ± error bars represent mean numbers ±SEM of apoptotic cells (kind of cells not specified) /3 mvhs. (D) qRT-PCR of apical cardiac tissues. Columns ± error bars represent the expression of the indicated pro-fibrotic markers ±SEM in the indicated treatment-groups normalised to controls. (E) Mast cells in 2μm paraffin-mvhs from the indicated treatment-groups; columns ± error bars represent the mean numbers ±SEM of mast cells/mm^2 cardiac tissue. For all parameters shown, differences between the treatment-groups were assessed by […] one way ANOVA and Dunnett`s post-hoc test; *p<0.05; **p<0.001.

[3] = Plasma half-life in vivo of 123I-(tyrosine)-labeled peptides; settings: 123I-(tyrosine)-labeled peptide, 1.4 to 1.8 MBq/animal injected; central venous blood samples gamma-counted 2, 4, 6, 8, 10, 20, 30, 60 min after injection; difference n.s.
[4] = Half-life of β1EC2-peptides in rat whole blood ex vivo; settings: for Half-life in whole blood, in words: ex vivo incubation experiments with whole blood (Fig. 1G); for half-life: rat, whole blood
[5] = immunised anti-β1EC2-positive rats, from 6 weeks after 1st immunisation EC2-CP 1.0 mg/kg i.v. every 4 weeks or bisoprolol 15 mg/kg/day orally over 12 months
[6] = non-immunised 0.9% NaCl-injected rats, EC2-CP 1.0 mg/kg i.v. every 4 weeks or bisoprolol 15 mg/kg/day orally over 12 months

| Compound | cardiac β1-AR density (downregulation), in words (cardiac β1-ARs) | Heart, relative (wet) weight [1, 5] | Kidney L, relative (wet) weight [1, 5] | Kidney R, relative (wet) weight [1, 5] | Liver, relative (wet) weight [1, 5] | Lung, relative (wet) weight [1, 5] | Spleen, relative (wet) weight [1, 5] | Weight (body weight) [1, 5] | Heart, relative (wet) weight [1, 6] | Kidney L, relative (wet) weight [1, 6] | Kidney R, relative (wet) weight [1, 6] | Liver, relative (wet) weight [1, 6] | Lung, relative (wet) weight [1, 6] | Spleen, relative (wet) weight [1, 6] | Weight (body weight) [1, 6] | number of myocardial fibrotic scars, in words [2] | TUNEL-positive apopotic cells, in words [2] | increase in cardiac mast cells, in words [2] | plasma-half life in vivo (t ½) [3] | Half-life in whole blood, in words [4] | further results |
| --- | --- | --- | --- | --- | --- | --- | --- | --- | --- | --- | --- | --- | --- | --- | --- | --- | --- | --- | --- | --- | --- |
| CC(C)NCC(O)COc1ccc(COCCOC(C)C)cc1 (stereo not drawn) [bisoprolol, reference compound] | small increase | 2.55 ± 0.06 mg/g | 2.63 ± 0.04 mg/g | 2.73 ± 0.07 mg/g | 22.63 ± 0.46 mg/g | 2.74 ± 0.07 mg/g | 1.74 ± 0.05 mg/g | 533 ± 27 g | 2.50 ± 0.06 mg/g | 2.79 ± 0.05 mg/g | 2.90 ± 0.07 mg/g | 22.33 ± 0.78 mg/g | 2.66 ± 0.22 mg/g | 1.79 ± 0.05 mg/g | 546 ± 8 g | not seen | not seen | reversed to control levels | – | – | – |
| CC(C)[C@@H]1NC(=O)[C@H](Cc2ccccc2)NC(=O)[C@H](CC(=O)O)NC(=O)[C@H](CS)NC(=O)[C@H](CS)NC(=O)[C@H](CCCCN)NC(=O)[C@@H]2CCCN2C(=O)[C@H](CC(=O)O)NC(=O)[C@H](CC(N)=O)NC(=O)[C@H](Cc2ccc(O)cc2)NC(=O)[C@H](CS)NC(=O)[C@H](CCCNC(=N)N)NC(=O)[C@H](CCCNC(=N)N)NC(=O)[C@H](C)NC(=O)[C@H](CCC(=O)O)NC(=O)[C@H](CC(=O)O)NC(=O)[C@H](CO)NC(=O)[C@H](CCC(=O)O)NC(=O)[C@H](C)NC(=O)[C@H](CCCNC(=N)N)NC(=O)[C@H](C)NC(=O)[C@H](CCC(N)=O)NC(=O)CNC(=O)[C@H](CCCNC(=N)N)NC(=O)[C@H](CC(N)=O)NC(=O)[C@H]([C@@H](C)O)NC1=O [β1EC2-CP] (cyclo(AESDEARRCYNDPKCCDFVTNRGQAR)) | largely prevented | 2.46 ± 0.05 mg/g | 2.71 ± 0.08 mg/g | 2.79 ± 0.06 mg/g | 23.59 ± 0.46 mg/g | 2.74 ± 0.14 mg/g | 1.48 ± 0.05 mg/g | 543 ± 24 g | 2.50 ± 0.06 mg/g | 2.62 ± 0.08 mg/g | 2.79 ± 0.01 mg/g | 22.51 ± 0.20 mg/g | 2.77 ± 0.10 mg/g | 1.58 ± 0.15 mg/g | 553 ± 11 g | returned to normal levels | returned to normal levels | reversed to control levels | 8.1 ± 2.8 min | days | half-life [4]: 486 h |
| CC(C)[C@H](NC(=O)[C@H](Cc1ccccc1)NC(=O)[C@H](CC(=O)O)NC(=O)[C@H](CS)NC(=O)[C@H](CS)NC(=O)[C@H](CCCCN)NC(=O)[C@@H]1CCCN1C(=O)[C@H](CC(=O)O)NC(=O)[C@H](CC(N)=O)NC(=O)[C@H](Cc1ccc(O)cc1)NC(=O)[C@H](CS)NC(=O)[C@H](CCCNC(=N)N)NC(=O)[C@H](CCCNC(=N)N)NC(=O)[C@H](C)NC(=O)[C@H](CCC(=O)O)NC(=O)[C@H](CC(=O)O)NC(=O)[C@H](CO)NC(=O)[C@H](CCC(=O)O)NC(=O)[C@H](C)NC(=O)[C@H](CCCNC(=N)N)NC(=O)[C@H](C)N)C(=O)N[C@H](C(=O)N[C@@H](CC(N)=O)C(=O)N[C@@H](CCCNC(=N)N)C(=O)NCC(N)=O)[C@@H](C)O [β1EC2-Lin] (H-ARAESDEARRCYNDPKCCDFVTNRG-NH2; N-terminus and C-terminus assumed) | – | – | – | – | – | – | – | – | – | – | – | – | – | – | – | – | – | – | 3.9 ± 2.2 min | hours | half-life [4]: 4 h |
